Assay results reported in patent US20210062149A1, “SINGLE B-CELL CULTIVATION METHOD” (Hoffmann-La Roche Inc., priority 2010, published 2021).

Legend:
[1] = tested on: hamster B-cells; assay: Co-cultivation of B-cells with feeder cells and feeder mix additives; assay type: cell-based
Procedure: (§1) a) The co-cultivation was performed in 96-well multi well plates with round bottom. A basis solution comprising EL-4 B5 cells (1.6×10^6 cells/15.2 ml) and cytokines in EL-4 B5 medium was prepared. 200 μl of the basis solution was added to each well of the multi well plate. To each well a single B-cell was added by fluorescence activated cell sorting. After the addition of the B-cells the plate was centrifuged for 5 min. at 300×g. The plate is incubated for seven days at 37° C.
(§2) The 96-well multi well plate in which the co-cultivation was performed was centrifuged after seven days of co-cultivation at 300×g for 5 min. 150 μl supernatant was removed and diluted at a ratio of 2:1 with PBS in a second 96-well multi well plate.

[2] = tested on: murine B-cells; assay: as above; assay type: cell-based, mouse
Procedure: as §1, §2

[3] = tested on: rabbit B-cells; assay: rbIgG ELISA of cell culture supernatants of rabbit B-cells co-cultivated with EL-4 B5 feeder cells; assay type: cell-based; settings: for B-cell growth: SAC added to feeder mix
Procedure: as §1
[…] B cell culture supernatants were removed for screening and the cells harvested immediately for variable region gene cloning or frozen at −80° C. in 100 μl RLT buffer (Qiagen, Hilden, Germany).
as §2
The ELISA was performed as outlined in Example 17.
The antibody was used at a concentration of 50 ng/ml. If the OD was or exceeded 1 after an incubation time of 5 min. a dilution series of from 0.8 to 108 ng/ml IgG was tested.
Antibodies produced by single deposited and co-cultivated B-cells or from B-cells obtained from an immunized experimental animal can be characterized with respect to specific antigen binding. The ELISA was performed at room temperature and the ELISA-solution was incubated between the individual steps on a shaker at 20×g. In the first step the antigen was bound to the wells of a 96-well multi well plate. If the antigen was a protein it had been diluted in coating buffer and applied directly to the plate. Peptide antigens were bound via the specific binding pair biotin/streptavidin. The wells of the multi well plate can be already coated with soluble CroteinC (CrC) by the manufacturer. If not, the wells were incubated after the immobilization of the antigen with 200 μl blocking buffer. After the incubation with 100 μl antigen solution per well (pre-coated multi well plate) or 200 μl blocking buffer, respectively, non-bound antigen or blocking buffer was removed by washing with wash buffer. The diluted B-cell supernatants were added in a volume of 100 μl per well and incubated. After the incubation the wells were washed. Afterwards the detection antibody was added in a volume of 100 μl per well. The antibody can be either conjugated to horseradish peroxidase or labeled with biotin. The detection antibody was determined with a streptavidin-horseradish peroxidase conjugate. After the incubation the multi well plate was washed and afterwards 50 μl of a substrate solution containing 3,3′,5,5′ tetramethyl benzidine (TMB) were added per well and incubated for a period as given in Table X. The enzymatic reaction was stopped by the addition of 50 μl sulfuric acid and the optical density was determined at 450 nm and 680 nm with a photometer (Rainbow Thermo ELISA Reader) and the Xread plus-software.

[4] = PAP-1 0.01 μM, in the presence of TSN and SAC
[5] = PAP-1 0.1 μM, in the presence of TSN and SAC
[6] = PAP-1 1 μM, in the presence of TSN and SAC
[7] = PAP-1 10 μM, in the presence of TSN and SAC
[8] = addition of PAP-1 to co-cultivation
[9] = SAC 1:20000, Table 8a third block (with w/o control)
[10] = SAC 1:50000, Table 8a third block
[11] = SAC 1:100000, Table 8a third block
[12] = SAC 1:150000, Table 8a third block
[13] = TSN + SAC, SAC 1:5000, Table 8a second block
[14] = TSN + SAC, SAC 1:10000, Table 8a second block
[15] = TSN + SAC, SAC 1:20000, Table 8a second block
[16] = TSN + SAC, SAC 1:40000, Table 8a second block

IL-6: interleukin-6, cytokine additive of the feeder mix
IgG-concentration ([1]; addition of IL-6 to the feeder mix, hamster-B-cells): increased IgG-concentration
number of IgG^+-wells/cell clones ([2]; addition of IL-6 to the feeder mix, murine-B-cells): increased number of IgG^+-wells/cell clones

O=c1ccc2c(OCCCCOc3ccccc3)c3ccoc3cc2o1 [PAP-1, 5-(4-phenoxybutoxy) psoralene, reference compound]
rbIgG conc. of all huCk^+ wells [average ng/ml] [3, 4]: 289.0 ng/mL
rbIgG^+ wells [% total wells] [3, 4]: 29 % total wells
rbIgG^+ wells [n] [3, 4]: 72 n
rbIgG conc. of all huCk^+ wells [average ng/ml] [3, 5]: 452.9 ng/mL
rbIgG^+ wells [% total wells] [3, 5]: 27 % total wells
rbIgG^+ wells [n] [3, 5]: 69 n
rbIgG conc. of all huCk^+ wells [average ng/ml] [3, 6]: 579.5 ng/mL
rbIgG^+ wells [% total wells] [3, 6]: 37 % total wells
rbIgG^+ wells [n] [3, 6]: 93 n
rbIgG conc. of all huCk^+ wells [average ng/ml] [3, 7]: 890.7 ng/mL
rbIgG^+ wells [% total wells] [3, 7]: 32 % total wells
rbIgG^+ wells [n] [3, 7]: 80 n
effect on number of B-cell clones [3, 8]: without decreasing the number of B-cell clones
effect on rbIgG secretion of B-cells [3, 8]: increases the rbIgG secretion of B-cells in a concentration dependent manner

Staphylococcus aureus strain Cowans cells [SAC]
rbIgG conc. of all rbIgG^+ wells [Ø ng/ml] [3, 9]: 665 ng/mL
rbIgG^+ wells [% total wells] [3, 9]: 30 % total wells
rbIgG^+ wells [n] [3, 9]: 75 n
rbIgG conc. of all rbIgG^+ wells [Ø ng/ml] [3, 10]: 742 ng/mL
rbIgG^+ wells [% total wells] [3, 10]: 37 % total wells
rbIgG^+ wells [n] [3, 10]: 93 n
rbIgG conc. of all rbIgG^+ wells [Ø ng/ml] [3, 11]: 774 ng/mL
rbIgG^+ wells [% total wells] [3, 11]: 37 % total wells
rbIgG^+ wells [n] [3, 11]: 92 n
rbIgG conc. of all rbIgG^+ wells [Ø ng/ml] [3, 12]: 668 ng/mL
rbIgG^+ wells [% total wells] [3, 12]: 29 % total wells
rbIgG^+ wells [n] [3, 12]: 72 n
B-cell growth ([3]; PBL (B cells and endogenous T cells) mixture for co-cultivation): B-cell growth was inhibited
B-cell growth ([3]; single deposited B-cells): only single deposited B-cells have a benefit in growth
number of IgG^+-wells/cell clones ([3]; SAC ratio of from 1:20000 to 1:150000): increased number of IgG^+-wells/cell clones
number of IgG^+-wells/cell clones ([3]; SAC ratio of from 1:50000 to 1:100000): highest numbers
rbIgG conc. of all rbIgG^+ wells [Ø ng/ml] [3, 13]: 149.0 ng/mL
rbIgG^+ wells [% total wells] [3, 13]: 15 % total wells
rbIgG^+ wells [n] [3, 13]: 13 n
rbIgG conc. of all rbIgG^+ wells [Ø ng/ml] [3, 14]: 159.1 ng/mL
rbIgG^+ wells [% total wells] [3, 14]: 18 % total wells
rbIgG^+ wells [n] [3, 14]: 15 n
rbIgG conc. of all rbIgG^+ wells [Ø ng/ml] [3, 15]: 233.7 ng/mL
rbIgG^+ wells [% total wells] [3, 15]: 32 % total wells
rbIgG^+ wells [n] [3, 15]: 27 n
rbIgG conc. of all rbIgG^+ wells [Ø ng/ml] [3, 16]: 197.2 ng/mL
rbIgG^+ wells [% total wells] [3, 16]: 36 % total wells
rbIgG^+ wells [n] [3, 16]: 30 n
number of antibody secreting B-cells and average IgG-concentration in the supernatant after co-cultivation ([3]; addition of SAC, single SAC lot): can be increased

B1: IL-4: interleukin-4, cytokine additive of the feeder mix (protein, UniProt P07750 21-140, looked up)
Interleukin-4: HIHGCDKNHLREIIGILNEVTGEGTPCTEMDVPNVLTATKNTTESELVCRASKVLRIFYLKHGKTPCLKKNSSVLMELQRLFRAFRCLDSSISCTMNESKSTSLKDFLESLKSIMQMDYS
number of IgG^+-wells/cell clones and IgG-concentration in the supernatant ([1]; addition of IL-4 to the feeder mix, hamster B-cells): increases the number of IgG^+-wells/cell clones as well as the IgG-concentration in the supernatant
number of IgG^+-wells/cell clones and IgG-concentration in the supernatant ([2]; addition of IL-4 to the feeder mix, murine B-cells): increases the number of IgG^+-wells/cell clones as well as the IgG-concentration in the supernatant
